Results: patent US11524937B2, “Indirubin derivatives, and uses thereof” (CITY OF HOPE, priority 2012, dated 2022)

Legend:
ABL1 = ABL1 (Homo sapiens, UniProt P00519); test: in vitro kinase assay, recombinant ABL1; type: biochemical; conditions: ABL versus Src, higher concentration for ABL
Description: The in vitro kinase assays of an IRD (IRD Nos. 10, 11, 13, 61, 70, 71, 79, 80, 83˜87 and 176) were carried out using recombinant proteins according to the procedure disclosed in Nam 2012 (Nam, S., Xie, J., Perkins, A., Ma, Y., Yang, F., Wu, J., Wang, Y., Xu, R. Z., Huang, W., Horne, D. A., and Jove, R. (2012) Novel synthetic derivatives of the natural product berbamine inhibit Jak2/Stat3 signaling and induce apoptosis of human melanoma cells, Molecular oncology), which is hereby incorporated by reference in its entirety, as if fully set forth herein.

[1] = test system: p-Stat5 (Y694) in KCL-22 CML cells; test: Western blot p-Stat5, KCL-22 CML cells; type: cell-based, human; conditions: 4 hours
Description: (§1) Human KCL-22 CML cells were obtained from the American Type Culture Collection (ATCC). Cells were cultured in RPMI-1640 media containing 10% fetal bovine serum (FBS). Imatinib-resistant human KCL-22 CML cells expressing the T315I mutant Bcr-Abl (KCL-22M) were derived from human KCL-22 CML cells (Yuan et al., 2010). Cells were grown in RPMI 1640 media supplemented with 10% FBS. Monoclonal antibodies to Abl protein and phosphotyrosine (p-Y) were obtained from BD Biosciences (San Diego, Calif.). Polyclonal antibodies to p-Stat5 (Y694) and p-Src family (Y419) were obtained from Cell Signaling Technologies (Cambridge, Mass.). Polyclonal antibodies to Stat5 were from Santa Cruz Biotechnology (Santa Cruz, Calif.). Monoclonal antibody to Src was obtained from Millipore (Billerica, Mass.).
(§2) Western analyses were performed as described previously with minor modification (Nam et al., 2005b). Briefly, KCL-22 CML and T315I KCL-22 CML cells were treated with IRDs. Whole-cell lysates were resolved by SDS-PAGE and immunoblotted with specific antibodies. Primary phospho-specific antibodies were incubated in TBS (pH 7.5) with 0.1% Tween-20 and 5% BSA with gentle agitation overnight at 4° C. […] Positive immuno-reactive proteins were detected using the ECL system (Pierce, Rockford, Ill.). […]

[2] = test system: p-Stat5 (Y694) in T315I KCL-22 CML cells; test: Western blot p-Stat5, T315I KCL-22 CML cells; type: cell-based, human; conditions: 4 hours
Description: as §1, §2

[3] = test system: p-Src in KCL-22 CML cells; test: Western blot p-Src, KCL-22 CML cells; type: cell-based, human; conditions: 1.0 μM
Description: as §1, §2

[4] = test system: p-Src in T315I KCL-22 CML cells; test: Western blot p-Src, T315I KCL-22 CML cells; type: cell-based, human; conditions: 1.0 μM
Description: as §1, §2

[5] = test system: p-Bcr-Abl in KCL-22 CML cells; test: Western blot p-Bcr-Abl, KCL-22 CML cells; type: cell-based, human; conditions: 4 hours
Description: as §1, §2

[6] = test system: p-Bcr-Abl in T315I KCL-22 CML cells; test: Western blot p-Bcr-Abl, T315I KCL-22 CML cells; type: cell-based, human; conditions: 4 hours
Description: as §1, §2

[7] = test system: Imatinib-resistant human KCL-22 CML cells expressing the T315I mutant Bcr-Abl; test: Drug resistance of imatinib-resistant T315I KCL-22 CML cells; type: cell-based

ABL1, sequence (P00519 whole entry): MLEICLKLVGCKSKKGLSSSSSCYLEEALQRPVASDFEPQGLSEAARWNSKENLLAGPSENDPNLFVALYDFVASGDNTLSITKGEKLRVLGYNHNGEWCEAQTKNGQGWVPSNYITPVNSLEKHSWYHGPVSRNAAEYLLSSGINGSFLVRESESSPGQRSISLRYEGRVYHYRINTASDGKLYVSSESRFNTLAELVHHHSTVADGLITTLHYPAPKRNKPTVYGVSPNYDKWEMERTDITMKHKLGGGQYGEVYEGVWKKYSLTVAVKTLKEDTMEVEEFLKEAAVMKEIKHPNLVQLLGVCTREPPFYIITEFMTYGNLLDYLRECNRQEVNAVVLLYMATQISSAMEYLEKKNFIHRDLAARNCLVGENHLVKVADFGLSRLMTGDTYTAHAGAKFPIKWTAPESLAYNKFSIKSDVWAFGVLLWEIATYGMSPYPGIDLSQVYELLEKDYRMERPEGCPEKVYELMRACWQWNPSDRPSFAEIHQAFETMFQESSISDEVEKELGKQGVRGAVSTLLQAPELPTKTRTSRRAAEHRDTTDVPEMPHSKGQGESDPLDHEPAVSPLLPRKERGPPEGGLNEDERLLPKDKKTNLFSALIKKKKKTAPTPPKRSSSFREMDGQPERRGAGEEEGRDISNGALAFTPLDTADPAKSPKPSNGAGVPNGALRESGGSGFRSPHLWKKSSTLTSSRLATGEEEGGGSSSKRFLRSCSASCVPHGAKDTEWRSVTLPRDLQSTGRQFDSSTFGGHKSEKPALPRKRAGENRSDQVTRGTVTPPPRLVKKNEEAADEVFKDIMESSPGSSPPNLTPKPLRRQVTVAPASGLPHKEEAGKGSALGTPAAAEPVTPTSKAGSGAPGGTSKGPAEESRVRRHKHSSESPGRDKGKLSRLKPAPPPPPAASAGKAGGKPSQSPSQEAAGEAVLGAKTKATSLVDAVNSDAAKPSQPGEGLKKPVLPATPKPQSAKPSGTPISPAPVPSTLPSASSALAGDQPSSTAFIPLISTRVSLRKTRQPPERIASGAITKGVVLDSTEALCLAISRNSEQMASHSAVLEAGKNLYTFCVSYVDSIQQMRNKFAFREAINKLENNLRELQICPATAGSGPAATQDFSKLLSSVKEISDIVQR

Compound | concentration inhibiting ABL kinase activity relative to Src kinase activity in vitro (ABL1) | tyrosyl phosphorylation of Stat5 ([1]; 5 μM) | total Stat5 levels [1] | tyrosyl phosphorylation of Stat5 ([2]; 5 μM) | total Stat5 levels [2] | autophosphorylation of Src [3] | autophosphorylation of Src [4] | concentration that reduced levels of p-Bcr-Abl [5] | concentration that reduced levels of p-Bcr-Abl [6] | resistance of the cells to the drug [7]
Cl.Cl.O=C1Nc2cc(Br)ccc2C1=C1Nc2ccccc2C1=NOCCN1CCNCC1 [compound 87] | about 15 fold | substantially inhibited | unchanged | substantially inhibited | unchanged | strong reduction | strong reduction | higher than 0.5 μM | higher than 0.5 μM | 
Cc1cn(-c2cc(NC(=O)c3ccc(C)c(Nc4nccc(-c5cccnc5)n4)c3)cc(C(F)(F)F)c2)cn1 [nilotinib] |  |  |  |  |  |  |  |  |  | resist
